Results on 4 compounds are retold here after patent US20020049151A1, “Therapeutic approaches to diseases by suppression of the NURR subfamily of nuclear transcription factors” (priority 2000, published 2002).

Test [1] concerns human CRH promoter. In words: hCRH-CAT reporter, transient transfection in primary human synoviocytes. Format: cell-based. The following applies: -666/+111 hCRH-CAT; RA and PsA synoviocytes; 10 ng/ml IL-1β, IL-6, TNFα, 1 μM PGE2, MoCM; 12 h. The procedure: To determine whether inflammatory mediators are capable of regulating the expression of the human CRH promoter a reporter construct was generated by cloning the proximal promoter region (−666/+111) (SEQ ID NO: 143) of the human CRH gene into the promoterless pBL3-chloramphenicol acetyl transferase (CAT) plasmid to create hCRH-CAT. Transcriptional regulation of the hCRH promoter was measured by transient transfection in primary human synoviocytes. […] Three individual RA and PsA synoviocyte cell lines were transiently transfected with 3 μg -666 /+111 hCRH-CAT reporter plasmid to monitor CRH promoter activity, maintained under normal conditions (Con), or exposed to 10 ng/ml IL-1β, IL-6, TNFα1 μM PGE2, MoCM or 25 μM FOR for 12 h. […] Representative CAT levels produced by transfected cells are illustrated in FIG. 2B.
Synovial tissue was treated for 4 h with 1 mg/ml collagenase (type I; Worthington Biochemical, Freehold, N.J.) in RPMI at 37° C. in 5% CO2. Dissociated cells were plated in RPMI supplemented with 10% fetal calf serum (GibcoBRL, Paisley, UK), penicillin (100 U/ml), streptomycin (100 U/ml) and fungizone (0.25 μg/ml). […] Twenty-four hours before transfection, 1×10^6 synoviocyte cells were plated in 25 cm^2 dishes and allowed to attach. Endotoxin free-DNA ([…] CMV-β-galactosidase or 3 μg -666/+111 hCRH CAT (Murphy and Conneely, 1997) was added to 35 μl lipotaxi reagent (Stratagene, Cambridge, UK) in a volume of 900 μl RPMI (serum free) and incubated at room temperature for 30 min. RPMI (1.5 ml) was added to the transfection mixture, transferred onto the cells and incubated for 6 h at 37° C. in 5% CO2. An equal volume of media was added, and the cells were incubated overnight at 37° C. in 5% CO2. The DNA-lipotaxi containing media was replaced, and the cells were left untreated or treated with 10 ng/ml IL-1β, IL-6, TNFα, 1 μM PGE2 or MoCM and incubated for a further 24 h. Chloramphenicol acetyl transferase (CAT) levels were measured using a CAT ELISA (Boehringer Mannheim, Germany). Protein concentrations were determined by the Bradford assay (BioRad, Richmond, Calif.). For β-galactosidase assays cells were washed with cold phosphate buffered saline (PBS), fixed with cold 0.5% glutaraldehyde and washed twice with PBS before incubation with staining solution (1M MgCl2, 5M NaCL, 0.5M HEPES pH7.3, 30 mM potassium ferricyanide, 30 mM potassium ferrocyanide and 2% 5-bromo-4-chloro-3-indoyl-β-galactopyranoside) for 12 h at 37° C.

Test [2] relates to NOR1 mRNA. Briefly: Northern analysis of NOR1 mRNA in primary RA synoviocytes. Format: cell-based, human. The following applies: 1 hour, TNFα 10 ng/mL, PGE2 10^-6 M, vs untreated. As for the experimental part:
The pathological importance of the NURR transcription factors in inflammatory joint disease was further examined by determining the ability of proinflammatory agonists to regulate NOR1 transcript levels in primary synoviocytes. (FIG. 14). Expression levels of NOR1 and NURR1 mRNA increased compared to the untreated synoviocytes upon treatment with TNFα.
Northern analysis of primary RA synoviocytes were untreated (lane 1) or treated for 1 hour with TNFα (lane 2), IL-1β (lane 3), and PGE2 (lane 4). TNFα and IL-1β were used at a concentration of 10 ng/mL and PGE2 was at a concentration of 10^-6 M.
(§1) Total RNA was isolated from cultured primary synoviocytes or synovial explants. RNA was quantitated by UV absorption and 10 μg of total RNA were electrophoresed on a standard northern gel and transferred to nylon membrane (BioRad, Richmond, Calif.). NURR1 and NUR77 cDNA probes (Murphy and Conneely, 1997), spanning the amino terminal region to avoid cross-hybridization, were radiolabeled to a high specific activity using [α-^32P] dCTP and a random primer labeling system (Promega, Madison, Wis.). Blots were exposed to film at −80° C. using intensifying screens and autoradiographic intensity was quantitated using an imaging densitometer.

The test system of test [3] is NURR1 mRNA. Briefly: Northern blot of NURR1 mRNA in synovium explants. Format: cell-based, human. The following applies: RA and PsA synovium explants; CRH 10^−8 M; IL-6 10 ng/ml. The procedure: To determine whether the NURR subfamily contribute to CRH signaling in a pathological context, freshly excised RA (FIG. 4A) and PsA synovium explants were incubated with CRH (10^−8 M) and examined for its ability to induce expression of NURR1 and NUR77 transcripts. […] Furthermore, analysis of synovium explants indicates higher endogenous and CRH-inducible NURR1 mRNA compared to NUR77 transcript levels.
In FIG. 4 total RNA was extracted and northern blot analysis was performed. Filters were hybridized with a cDNA for NURR1 or NUR77 and also with GAPDH to control for loading and transfer. Synovial explants were left untreated [C] or incubated with 10^−8M CRH for the indicated times. (FIG. 4A) Confluent monolayers of primary synoviocytes were left untreated [C] or pretreated with 10^−8M dexamethasone (DEX) for 2 h prior to the addition of 25μM forskolin (FOR) or 20 ng/ml of phorbal myristic acetate (PMA). (FIG. 4B)
For FIG. 6 each membrane was reprobed with a GAPDH cDNA to control for loading and transfer. NURR1 mRNA levels were measured by northern analysis using total RNA extracted from synoviocytes left untreated [C] or cultured for the time indicated with (A) TNFα (10 ng/ml) in the presence or absence of pre-treatment with 10^−8M dexamethasone (DEX). (B) IL-1β(10 ng/ml) in the presence or absence of pretreatment with 2 μM indomethacin (INDO) or 10^−8M DEX. (C) or synovial explants cultured with IL-6 (10 ng/ml). (D) 1 μM PGE2. (E) 25 μM forskolin (FOR) or […] for 1h in the absence or presence of 5 µg/ml cycloheximide (CHX).
as §1

Test [4] deals with synoviocytes. Briefly: Synoviocyte morphological transformation (fibroblast-like to stellate). The settings on record: primary PsA synoviocytes, untreated vs TNFα. It is filed as cell-based, human.

With `CCCCC[C@H](O)/C=C/[C@H]1[C@H](O)CC(=O)[C@@H]1C/C=C\CCCC(=O)O` [PGE2, reference compound], in test [1], the “transcriptional activity of the hCRH promoter (CAT), fold” value (from here on “transcriptional activity … fold”) is 28.8+/−1.7 fold. Further, the “NOR1 mRNA expression levels” value in test [2] was “only a moderate increase”.
Consider IL-1β: pro-inflammatory cytokine, for which, in test [1], the “transcriptional activity … fold” value is 17.1+/−3.1 fold.
On to IL-6: pro-inflammatory cytokine, for which the “transcriptional activity … fold” value in test [1] was 3.2+/−1.9 fold. Besides, the “NURR1 mRNA induction in synovium explants” value in test [3] is “rapid and marked increase”.
Consider TNFα, for which the “synoviocyte morphology after stimulation” value in test [4] is given as “stellate shape”. In test [1], the “transcriptional activity … fold” value is 15.6+/−1.9 fold. For the same compound, the “NOR1 mRNA expression levels” value in test [2] was “increased”.
